# Assay results reported in PMC12196494, “Application of Solvent Evaporation to Generate Supersaturated Lipid-Based Formulations: Investigation of Drug Load and Formulation Quality” (Pharmaceutics, 2025).
# Where two headings read alike, the source gives them in different places.
# What was measured:
# [1] = cited from earlier work; for Drug load, % of the equilibrium solubility at 37 °C: supersaturated type I and type II LBFs
# rats = system: rats; set-up: method as in PMID 33387565; details: doses of 1000–4000 ppm DCM; cited from earlier work
# hamsters = system: hamsters; set-up: method as in PMID 33387565; details: doses of 1000–4000 ppm DCM; cited from earlier work
# mice = system: mice; set-up: method as in PMID 33387565; details: doses of 1000–4000 ppm DCM; cited from earlier work
# [2] = MCT and LCM formulations, polarized light, Figure 1A-D
# Source text: For selected samples where precipitation was visible, a few droplets (enough volume to cover the area of a quartz microscope slide covered by a cover slip) were taken from the middle of the vial using a plastic pipette, and the crystallinity was confirmed by using a ZEISS Axio Vert.A1 microscope with polarized light function (Jena, Germany).
# [3] = Solubility studies in lipid-based formulations (MCT, LCM) at different temperatures; type: physicochemical; details: for solubility: oil or lipid, thermodynamic from solid, n = 3, mean ± SD
# Protocol: In the case that the added compound was dissolved during incubation, more compound was added. After incubation, the samples were centrifuged in an Eppendorf centrifuge 5430R (Hamburg, Germany) for 30 min at 17,500 rpm (=30,130 rcf) at either 20 °C (samples incubated at ambient temperature), 37 °C (samples incubated at 37 °C), or 40 °C (samples incubated at 60 °C). The supernatant was diluted and further analyzed by UPLC-UV, as described below.
# The supernatants obtained from the solubility studies were diluted 1:50 with tetrahydrofuran, which was further diluted 1:100 with acetonitrile. […] This final dilution was analyzed by using an Acquity (UPLC™) H-class system composed of a quaternity solvent manager, a photodiode array (PDA) detector, a sample manager, and the Empower® software (version 3.0) for data processing. For the chromatographic analysis, a reversed-phase Waters Acquity BEH C18 with a 50 mm × 2.1 mm column (particle size 1.7 μm) including a precolumn (Waters Acquity BEH C18, 5 mm * 2.1 mm, particle size 1.7 μm) (Waters, Milford, CT, USA) was used.
# The statistical analysis was performed using GraphPad Prism, Version 9.5.1.
# [4] = cited from earlier work
# [5] = for Stability: celecoxib in LCM
compound,measurement,setting,value
CC(C)Cc1ccc(C(C)C(=O)O)cc1 (stereo not drawn) [ibuprofen],Time stable,[1]; some ibuprofen-loaded solid LBFs,up to 9 months
C(=C\c1ccccc1)/CN1CCN(C(c2ccccc2)c2ccccc2)CC1 [cinnarizine],"Drug load, % of the equilibrium solubility at 37 °C",[1],up to 138%
"CC(C)OC(=O)C(C)(C)Oc1ccc(C(=O)c2ccc(Cl)cc2)cc1 [Fenofibrate, fenofibrate]",Time of storage to crystallization,"[1]; heat-induced supersaturated LBF of MCT and phospholipids, prepared at 65 °C, stored at 20–23 °C",nine weeks
"ClCCl [DCM, dichloromethane]",Risk for malignant tumors,rats,not in rats and hamsters
same,Risk for malignant tumors,hamsters,not in rats and hamsters
same,Risk for malignant tumors,mice,increased risk for malignant tumors
"Cc1ccc(-c2cc(C(F)(F)F)nn2-c2ccc(S(N)(=O)=O)cc2)cc1 [Celecoxib, celecoxib]",Solid state of the precipitate from the formulations,[2],crystalline
same,Time to precipitation,"[1]; heat-induced supersaturated type I and type II LBFs, in most cases",≤ 14 days
same,"Drug load, % of the equilibrium solubility at 37 °C",[1],≤ 136%
same,Ratio of solubility 60 °C/Ambient temperature,[3]; LCM,2.38 ± 0.04
same,Ratio of solubility 60 °C/Ambient temperature,[3]; MCT,1.85 ± 0.03
same,solubility,"[3]; long-chain monoglyceride (Maisine CC), Maisine CC, 37 °C, read-out: Solubility LCM",15.57 ± 0.09 mg/mL
same,solubility,"[3]; long-chain monoglyceride (Maisine CC), Maisine CC, 60 °C, read-out: Solubility LCM",24.6 ± 0.36 mg/mL
same,solubility,"[3]; long-chain monoglyceride (Maisine CC), Maisine CC, ambient temperature (~21 °C), read-out: Solubility LCM",10.34 ± 0.08 mg/mL
same,solubility,"[3]; medium-chain triglyceride (Labrafac Lipophile WL1349), medium-chain triglyceride, 37 °C, read-out: Solubility MCT",11.3 ± 0.05 mg/mL
same,solubility,"[3]; medium-chain triglyceride (Labrafac Lipophile WL1349), medium-chain triglyceride, 60 °C, read-out: Solubility MCT",14.3 ± 0.25 mg/mL
same,solubility,"[3]; medium-chain triglyceride (Labrafac Lipophile WL1349), medium-chain triglyceride, ambient temperature (~21 °C), read-out: Solubility MCT",7.72 ± 0.16 mg/mL
same,Supersaturation ratio between 60 °C and ambient temperature,[3]; range over MCT and LCM,1.85–2.38
same,Drug load relative to the solubility at ambient temperature,[3]; supersaturation induced by heat (60 °C),238%
same,log P,[4],4.3
same,Precipitation,"[5]; celecoxib content of 371% or higher, both vehicles, stored at ambient",visible precipitation already within a timeframe of a few days
same,Stability,"[5]; DCM 1 + 2, stored at ambient",7 to 14 days
same,Stability,"[5]; DCM 1 + 4, stored at ambient, n = 1",7 to 14 days
same,Drug load relative to the solubility at ambient temperature,"[5]; solvent-based approach, DCM evaporation",up to 475%
